Measurements reported in article PMC6211316, “Synthesis and biological evaluation of 3-arylcoumarin derivatives as potential anti-diabetic agents” (Journal of Enzyme Inhibition and Medicinal Chemistry, 2018).

Legend:
[1] = tested on: STZ-diabetic mice; test: Acute hypoglycemic assay in STZ-diabetic mice; type: in vivo; details: for highest anti-hyperglycemic effect: STZ-diabetic mice; for Blood glucose concentration / % Variation of glycemia: STZ-diabetics mice
In short: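 Mice made diabetic by single i.p. STZ 110 mg/kg in citrate buffer pH 4.5; blood glucose >11 mM after 7 days required. After 12 h fast, compounds at 10, 30, 100 mg/kg given intragastrically in 0.05% Tween-80/saline; blood glucose read at 0, 1.5, 3, 5, 7, 9 h post-dose.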

[2] = tested on: STZ-induced diabetic mice; test: Daily treatment for 16 days in STZ-induced diabetic mice; type: in vivo
Method: Thereafter, the target compounds 11, 17, 35, and glibenclamide were administered once (9 a.m.) on a daily basis, for a period of 16 days, to STZ-induced diabetic mice which were divided into five groups (A-E). A six group of normal mice (Group F) was used as a control. Groups E (diabetic control) and F received vehicle (0.05% Tween-80 in saline solution) per os for 16 days. Group A received glibenclamide (10 mg/kg of bw daily). Groups B–D received different treatments: B, compound 11 (30 mg/kg of bw daily); C, compound 17 (30 mg/kg of bw daily); D, compound 35 (30 mg/kg of bw daily). All tested materials were suspended in the same vehicle and administered per os daily for 16 days. The animals were housed under standard laboratory conditions and maintained with free access to water and food during all the experiment. Blood glucose concentration on animals of diabetic (Groups A–E) and control group (Group F) was estimated at days 1, 4, 7, 10, 13, and 16. The bw of the animals were measured concomitantly to the blood glucose analyses. All experiments were carried out using six animals per group.

[3] = DPPH free radical scavenging; details: mean ± SD (n = 3)
In short: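 Sample solutions at various concentrations mixed 1:1 with DPPH (0.04 mg/mL) and reacted 30 min at room temperature; absorbance read at 517 nm against ethanol blank, corrected for sample absorbance. Scavenging % calculated versus DPPH alone, triplicate measurements, IC50 derived.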

[4] = tested on: normal mice; test: Acute hypoglycemic assay in normal mice; type: in vivo
Method: STZ-induced diabetic mice and normal mice were placed in single cages with wire-net floors and deprived of food for 12 h before experimentation but allowed free access to tap water throughout. The compounds (at the doses of 10, 30, and 100 mg/kg of bw) were suspended in 0.05% Tween-80 in saline solution. Glibenclamide (10 mg/kg of bw) was suspended in the same vehicle. The target compounds were freshly prepared immediately before experimentation and administered by the intragastrical route at the doses of 10 ml/kg of bw. Control mice received only the vehicle (0.05% Tween-80 in saline solution) by the same route. Blood glucose levels were measured at 0, 1.5, 3, 5, 7, and 9 h after drugs administration.

## O=c1oc2ccc(O)cc2cc1-c1ccc(O)cc1 [Compound 17, 6-Hydroxy-3-(4-hydroxyphenyl)-coumarin]
[1]; STZ-diabetic animals, 30 mg/kg of bw, started from 3 h and persisted throughout the experiment
  hypoglycemic effect: > 50%
[1]; 30 mg/kg, at 9 h
  highest anti-hyperglycemic effect: ~70.39%
[1]; 100 mg/kg, at 7 h
  highest anti-hyperglycemic effect: ~70.51%
[1]; 10 mg/kg of bw per os, 0h
  Blood glucose concentration: 26.9 ± 3.8 mM
[1]; 10 mg/kg of bw per os, 1.5h
  % Variation of glycemia: (−8.92) %
  Blood glucose concentration: 24.5 ± 3.0 mM
[1]; 10 mg/kg of bw per os, 3h
  % Variation of glycemia: (−15.24) %
  Blood glucose concentration: 22.8 ± 2.3 mM
[1]; 10 mg/kg of bw per os, 5h
  % Variation of glycemia: (−38.29) %
  Blood glucose concentration: 16.6 ± 5.8 mM
[1]; 10 mg/kg of bw per os, 7h
  % Variation of glycemia: (−44.98) %
  Blood glucose concentration: 14.8 ± 8.0 mM
[1]; 10 mg/kg of bw per os, 9h
  % Variation of glycemia: (−45.35) %
  Blood glucose concentration: 14.7 ± 9.5 mM
[1]; 30 mg/kg of bw per os, 0h
  Blood glucose concentration: 23.3 ± 3.2 mM
[1]; 30 mg/kg of bw per os, 1.5h
  % Variation of glycemia: (−23.18) %
  Blood glucose concentration: 17.9 ± 5.7 mM
[1]; 30 mg/kg of bw per os, 3h
  % Variation of glycemia: (−50.22) %
  Blood glucose concentration: 11.6 ± 4.8 mM
[1]; 30 mg/kg of bw per os, 5h
  % Variation of glycemia: (−64.38) %
  Blood glucose concentration: 8.3 ± 3.8 mM
[1]; 30 mg/kg of bw per os, 7h
  % Variation of glycemia: (−68.24) %
  Blood glucose concentration: 7.4 ± 6.7 mM
[1]; 30 mg/kg of bw per os, 9h
  % Variation of glycemia: (−70.39) %
  Blood glucose concentration: 6.9 ± 7.9 mM
[1]; 100 mg/kg of bw per os, 0h
  Blood glucose concentration: 23.4 ± 5.7 mM
[1]; 100 mg/kg of bw per os, 1.5h
  % Variation of glycemia: (−19.66) %
  Blood glucose concentration: 18.8 ± 6.0 mM
[1]; 100 mg/kg of bw per os, 3h
  % Variation of glycemia: (−46.58) %
  Blood glucose concentration: 12.5 ± 4.7 mM
[1]; 100 mg/kg of bw per os, 5h
  % Variation of glycemia: (−67.52) %
  Blood glucose concentration: 7.6 ± 3.8 mM
[1]; 100 mg/kg of bw per os, 7h
  % Variation of glycemia: (−70.51) %
  Blood glucose concentration: 6.9 ± 2.6 mM
[1]; 100 mg/kg of bw per os, 9h
  % Variation of glycemia: (−65.81) %
  Blood glucose concentration: 8.0 ± 2.3 mM
[2]; 30 mg/kg of bw daily per os, 16 days
  bw loss in hyperglycemic mice: prevented bw loss
[2]; 30 mg/kg of bw oral, once a day, for 16 days
  long-term anti-hyperglycemic effect (blood glucose levels): induced obviously anti-hyperglycemic effect
[3]
  IC50: 163 ± 7.13 µM
[4]; 10 mg/kg of bw per os, 0h
  Blood glucose concentration: 10.6 ± 0.4 mM
[4]; 10 mg/kg of bw per os, 1.5h
  % Variation of glycemia: (−23.96) %
  Blood glucose concentration: 7.9 ± 0.7 mM
[4]; 10 mg/kg of bw per os, 3h
  % Variation of glycemia: (−34.19) %
  Blood glucose concentration: 6.9 ± 0.8 mM
[4]; 10 mg/kg of bw per os, 5h
  % Variation of glycemia: (−45.37) %
  Blood glucose concentration: 5.7 ± 0.7 mM
[4]; 10 mg/kg of bw per os, 7h
  % Variation of glycemia: (−48.56) %
  Blood glucose concentration: 5.4 ± 0.5 mM
[4]; 10 mg/kg of bw per os, 9h
  % Variation of glycemia: (−51.12) %
  Blood glucose concentration: 5.1 ± 0.4 mM
[4]; 30 mg/kg of bw per os, 0h
  Blood glucose concentration: 10.8 ± 0.3 mM
[4]; 30 mg/kg of bw per os, 1.5h
  % Variation of glycemia: (−18.39) %
  Blood glucose concentration: 8.4 ± 1.0 mM
[4]; 30 mg/kg of bw per os, 3h
  % Variation of glycemia: (−33.55) %
  Blood glucose concentration: 6.9 ± 0.9 mM
[4]; 30 mg/kg of bw per os, 5h
  % Variation of glycemia: (−48.71) %
  Blood glucose concentration: 5.3 ± 0.7 mM
[4]; 30 mg/kg of bw per os, 7h
  % Variation of glycemia: (−48.71) %
  Blood glucose concentration: 5.3 ± 1.1 mM
[4]; 30 mg/kg of bw per os, 9h
  % Variation of glycemia: (−56.45) %
  Blood glucose concentration: 4.5 ± 0.6 mM
[4]; 100 mg/kg of bw per os, 0h
  Blood glucose concentration: 10.4 ± 0.2 mM
[4]; 100 mg/kg of bw per os, 1.5h
  % Variation of glycemia: (−25.90) %
  Blood glucose concentration: 7.5 ± 1.2 mM
[4]; 100 mg/kg of bw per os, 3h
  % Variation of glycemia: (−37.71) %
  Blood glucose concentration: 6.3 ± 0.9 mM
[4]; 100 mg/kg of bw per os, 5h
  % Variation of glycemia: (−49.18) %
  Blood glucose concentration: 5.2 ± 0.5 mM
[4]; 100 mg/kg of bw per os, 7h
  % Variation of glycemia: (−53.44) %
  Blood glucose concentration: 4.7 ± 0.4 mM
[4]; 100 mg/kg of bw per os, 9h
  % Variation of glycemia: (−58.03) %
  Blood glucose concentration: 4.3 ± 0.4 mM
